These results are taken from US7713960B2, “Inhibition of the Raf/Mek/P-Erk pathway for treating cancer” (University of South Florida, priority 2005, dated 2010).

Experiment [1] concerns c-Raf-1. The experiment is described as follows: In vivo kinase assay, intact MDA-MB-231 cells treated, c-Raf-1. Format: cell-based, human. The note with it: 10 μM. How it is done:
(§1) In Vitro Kinase Assays—MDA-MB-231 cells (2×10^6) were lysed for 30 minutes at 4° C. in RIPA-150 buffer (10 mM Tris pH 7.5, 150 mM NaCl, 10% glycerol, 5 mM EDTA, 1% Triton X-100, 0.1% SDS, 100 μM sodium orthovanadate, 1 μM aprotinin, 10 μM leupeptin, 10 μM antipain). Cell debris was pelleted at 13000 rpm for 15 minutes at 4° C. and the lysate was rocked overnight with 10 μg of either c-Raf or MEK antibodies (Santa Cruz Biotechnologies, Santa Cruz, Calif.). 25 μl of protein A/G PLUS agarose (Santa Cruz Biotechnology) was then added and rocked for 4 hours at 4° C. Samples were spun at 2000 rpm for 5 minutes to collect the agarose beads, which were then washed four times with lysis buffer. On the final wash each pellet was divided into 5. […]

Experiment [2] relates to SNB-19 cells. The experiment is described as follows: Apoptosis assay (Cell Death Detection ELISA), SNB-19. Format: cell-based, human. Conditions: 48 hours, two single values. The procedure:
(§2) Apoptosis Assay—Apoptosis was analyzed using the Cell Death Detection ELISA (Roche, Indianapolis, Ind.) measuring cytoplasmic histone-associated mono- and oligonucleosome DNA fragments. Procedures were carried out according to the manufacturers protocol. Briefly, 1×10^5 cells were plated in 60 mm dishes and treated with various doses of ARA-211 or vehicle for 48 hours. Cells were lysed with the provided lysis buffer and lysate was incubated on the ELISA plate for 1 hour to capture the histone associated DNA indicative of apoptotic cells. Anti-DNA peroxidase conjugated antibody was added to detect the cleaved DNA and the microplate was washed and developed with ABTS substrate which was quantitated by microplate reader at 405 nm.
(In general: An ELISA detects its analyte on a solid surface through an enzyme-linked reagent.)

The test system of experiment [3] is P-STAT3. The experiment is described as follows: P-STAT3 levels (Western blotting), MDA-MB-231. Type of experiment: cell-based, human. The procedure: (§3) Western Blotting—Treated cell samples were lysed in 30 mM HEPES, 10 mM NaCl, 5 mM MgCl2, 25 mM NaF, 1 mM EGTA, 1% Triton-X-100, 10% Glycerol, 2 mM Sodium orthovanidate, 10 μg/mL aprotinin, 10 μg/mL soybean trypsin inhibitor, 25 μg/mL leupeptin, 2 mM phenylmethylsulfonylfluoride (PMSF), 6.4 mg/mL p-nitrophenylphosphate for 30 minutes at 4° C., and proteins run on SDS-PAGE gels then transferred to nitrocellulose membranes. Membranes were blocked in either 5% milk in PBS, pH 7.4, containing 0.1% Tween-20 (PBS-T) or 1% BSA in TBS, pH 7.5, containing 0.1% Tween-20 (TBS-T). Phospho-STAT3 and phospho-AKT antibodies were diluted in 1% BSA in TBS-T while phospho-c-Raf, phospho-Mek, and phospho-p44/p42 MAPK antibodies (Cell Signaling) were diluted in 5% milk in PBS-T for either 1 hour at room temperature or overnight at 4° C. HRP-conjugated secondary antibodies (Jackson ImmunoResearch, West Grove, Pa.) were diluted in 5% milk in PBS-T or TBS-T at a 1:1000 dilution for one hour at room temperature. Western blots results were visualized using enhanced chemiluminescence. Stripping of the membranes for reblotting was done using stripping buffer (62.5 mM Tris pH 7.6, 2% SDS, 0.7% 2-mercaptoethanol) at 50° C. for 30 minutes.
A general note: Immunoblotting shows a protein as a band on a membrane.

Experiment [4] deals with P-Akt. The experiment is described as follows: P-Akt levels (Western blotting), MDA-MB-231. Format: cell-based, human. How it is done:
as §3

Experiment [5] has as its system protein kinase A (PKA). The experiment is described as follows: PKA kinase assay, MDA-MB-231 cells. Type of experiment: cell-based, human. The procedure: PKA Kinase Assay—PKA kinase assays were performed with the SignaTECT® cAMP-Dependent Protein Kinase (PKA) Assay System (Promega, Madison Wis.) according to the manufacturer's protocol. Briefly, cells were plated (5×10^6) into 100 mm dishes and treated the next day with ARA-211, H-89 (EMD Biosciences), or vehicle. Cells were lysed using a Dounce homogenizer and lysates were incubated in the supplied kinase reaction buffer, with ^32P-ATP and biotin labeled PKA peptide substrate for 5 min at 37° C. Once the reactions were quenched they were spotted onto streptavidin membranes and ^32P-ATP transfer was measured via scintillation counter.

Experiment [6] has as its system A-549 cells. The experiment is described as follows: Anchorage-independent growth (soft agar assay), A-549. The note with it: n = 6. Format: cell-based, human. The procedure: (§4) Soft Agar Assay—Anchorage independent growth assays were performed as previously described (Lerner et al., 1997). Briefly, agar was diluted to 0.3% in propagation media containing 20,000 cells and either vehicle or ARA-211 and 1 ml of cell/agar mixture plated on top of 2 ml of a 0.6% layer of agar in medium alone. Cells were grown for three to four weeks at 37° C., 10% Co2 and were fed weekly with 100 μl per well of media/treatment. Quantification of colonies was done using a GS-700 scanning densitometer.

Experiment [7] concerns P-c-Raf-1. The experiment is described as follows: P-c-Raf-1 levels (Western blotting), MDA-MB-231. Format: cell-based, human. The procedure: as §3
In experiment [8] the target is T1, c-Raf-1 (Homo sapiens, UniProt P04049).
T1 construct: c-Raf-1 and Mek-1, immunoprecipitated from MDA-MB-231 cells; endogenous in cells; host or cells: MDA-MB-231
The experiment is described as follows: In vitro kinase assay, c-Raf-1 immunoprecipitated from MDA-MB-231 cells. Format: biochemical. Conditions: immunoprecipitated kinase treated in vitro, 10 μM. How it is done:
as §1

Experiment [9] relates to MDA-MB-231 cells. The experiment is described as follows: Apoptosis assay (Cell Death Detection ELISA), MDA-MB-231. Type of experiment: cell-based, human. The note with it: 48 hours. The procedure: as §2
Experiment [10] relates to HCT-116 cells. The experiment is described as follows: Anchorage-independent growth (soft agar assay), HCT-116. Type of experiment: cell-based, human. The procedure: as §4

Structures can show the parent of a compound that is named as a salt.

T1 sequence (P04049 whole entry): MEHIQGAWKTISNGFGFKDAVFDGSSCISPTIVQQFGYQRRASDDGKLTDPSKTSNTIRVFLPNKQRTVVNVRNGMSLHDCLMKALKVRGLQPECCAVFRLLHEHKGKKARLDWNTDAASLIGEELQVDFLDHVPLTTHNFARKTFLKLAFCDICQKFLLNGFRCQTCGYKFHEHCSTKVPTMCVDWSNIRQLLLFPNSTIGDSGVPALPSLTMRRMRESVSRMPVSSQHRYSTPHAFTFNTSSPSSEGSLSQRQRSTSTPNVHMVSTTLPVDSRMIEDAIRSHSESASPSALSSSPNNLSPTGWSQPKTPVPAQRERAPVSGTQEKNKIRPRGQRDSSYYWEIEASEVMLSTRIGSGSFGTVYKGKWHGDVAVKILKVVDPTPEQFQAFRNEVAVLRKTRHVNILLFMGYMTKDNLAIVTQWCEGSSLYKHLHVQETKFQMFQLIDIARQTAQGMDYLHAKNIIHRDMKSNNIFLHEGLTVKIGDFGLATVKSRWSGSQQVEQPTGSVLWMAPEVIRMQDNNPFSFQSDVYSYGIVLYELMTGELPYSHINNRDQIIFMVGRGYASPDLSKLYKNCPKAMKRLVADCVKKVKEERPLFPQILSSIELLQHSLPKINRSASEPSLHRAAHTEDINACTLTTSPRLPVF

As for `CC(C)(C)NCC(O)c1ccc(O)c(CO)n1` (stereo not shown) [ARA-211, 2-hydroxymethyl-3-hydroxy-6-(1-hydroxy-2-tert-butylaminoethyl) pyridine, dihydrochloride], in experiment [1], the “c-Raf-1 kinase activity, intact cells first treated” value is “blocked”. The “Apoptosis (% Induction)” value in [2] is on record as 0, 0%; in experiment [9] it was 15 ± 4%. For the same molecule, the P-STAT3 levels result in experiment [3] is listed as “not”. The P-Akt levels entry in [4] is “not”. Besides, the “activation of protein kinase A (PKA)” value in experiment [5] is on record as “activation of protein kinase A (PKA)”. Also, the “Anchorage Independent Growth (% Inhibition)” value in experiment [6] is on record as 0 (n = 6) %; in experiment [10] it was 7.3 ± 3.1%. The P-c-Raf-1 levels entry in experiment [7] is “not”. Also, the “in vitro c-Raf-1 kinase activity” value in experiment [8] is “did not inhibit”.
